Consider one compound from patent US11213515B1, “Compounds that interact with the Ras superfamily for the treatment of cancers, inflammatory diseases, rasopathies, and fibrotic disease” (Shy Therapeutics LLC, priority 2017, dated 2022).

The target of this test is KRas G12D/Q61H double mutant (Homo sapiens (Human), UniProt P01116, G12D/Q61H). Nature of the test: Ras GTP binding domain inhibition assay (labeled GTP). The settings on record: 20 μM compound. On the procedure: Buffer-I: • 50 mM Tris, pH 7.5 • 150 mM NaCl (optional) • 1 mM MgCl2 • 1 mM DTT. • KRas G12D mutant protein was expressed as a His-tagged protein. Purified His-KRas G12D protein was diluted in buffer-I to a final concentration of 3-10 μg/ml. • 200 μl of the diluted His-KRas G12D protein was added to a nickel coated 96 well plate and incubated overnight at 4° C. • The next day, wells were washed 3× in 200 μl of Buffer-I. • Then 200 μl of Buffer-I were added to each well in the presence of 1% DMSO. • Tested compounds were added to the protein-coated wells at a concentration of 20 μM, and incubated for 3 hours at room temperature. […]
Sequence of KRas G12D/Q61H double mutant (P01116-2 other isoform, or with tags, fused parts or gaps G12D/Q61H): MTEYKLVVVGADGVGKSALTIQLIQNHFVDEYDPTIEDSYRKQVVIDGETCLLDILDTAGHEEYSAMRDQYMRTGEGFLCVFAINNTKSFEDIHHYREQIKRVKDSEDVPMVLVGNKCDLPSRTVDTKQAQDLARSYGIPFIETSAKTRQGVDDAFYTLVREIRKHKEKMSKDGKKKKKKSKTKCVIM
Then 22 μl of Cy3-GTP or Cy5-GTP was added to each well. The labeled GTP was incubated for 45 min. at room temperature. • Following GTP incubation, wells were washed 3× in Buffer-I, and 200 μl of Buffer-I were added to each well. • Following washes, the amount of bound labeled-GTP was measured with an Eppendorf AF2200 plate reader.
By substituting KRas G12D mutant protein with KRas G12C mutant, KRas wild type, KRas Q61H mutant, KRas G12D/Q61H double mutant or KRas G12C/Q61H double mutant under the assay conditions described above, KRas G12C mutant KRas wild type, KRas Q61H mutant, KRas G12D/Q61H double mutant and KRas G12C/Q61H double mutant inhibition, respectively, were each determined.

Usually inhibition stands for the change of the read-out against control, counted positive when it falls. Regarding `COCCn1c(SC(C)c2nc(-c3cccnc3)no2)nc2cc(Cl)ccc2c1=O` (stereo not shown), the inhibition at 20 µM lay within 1 to 25%.
